≈ marks a conversion by molar mass, not a printed value. Where a SMILES comes first, the peptide text is derived from it. [ ]: non-standard residue; d: D form.
Experiments:
[1] = system: MRSA SAP400, a USA400 strain; assay: microbe, parasite or virus in culture; conditions: USA400
Procedure: (§1) Subcultures, prepared by inoculating 25 mL of fresh tryptic soy broth (TSB) with 200 μL of an overnight culture, were grown to log phase (OD600 = 0.3–0.6), after which cell counts were determined by measuring the OD600 (1.0 = 5 × 10^8 CFU/mL for E. coli, 4 × 10^8 CFU/mL for K. pneumoniae, 4 × 10^8 CFU/mL for P. aeruginosa, 1.5 × 10^8 CFU/mL for S. aureus). Bacterial cells were diluted to appropriate concentrations in TSB. We used the following clinical bacterial isolates of Klebsiella pneumoniae in this study: Strains KP6, KP46, NDM-1, KP396, and KP398 have been previously described.[43] ST58 strains C2, C3, and I2 are also described.[41] […] MRSA, […] S. aureus strain, is SAP400, a USA400 strain of community-acquired MRSA. […] The second independent set of K. pneumoniae isolates are previously described.[20],[21]
(§2) The antibiotics were serially diluted by a factor of 2:3 horizontally across 96-well plates from Corning, 25 μL per well. One column was reserved for controls. For the assays performed in the presence of RBC, type O+ human RBCs at 0 or 2.5 × 10^9 cells/mL were added in 50 μL aliquots to all wells. Following a 30-min incubation, 50 μL of TSB, inoculated with 5 × 10^5 CFU/mL, was added to all wells, and plates were incubated overnight at 37 °C. Following overnight incubation at 37 °C, the OD600 was measured (values of less than 0.1 were considered sterilized). To assess bacterial growth in the assays with RBC, the OD600 was measured after a second-day inoculation with 10 μL of solution from the original plate added to 100 μL of sterile TSB followed by overnight incubation.
(§3) Experiments were repeated four to eight times independently, with pairs of replicate measurements on each 96-well plate. After overnight growth, optical densities were measured at 660 nm and the sterilized wells were identified by having O.D. < 0.08. Nonsterilized wells were nearly opaque with OD > 0.6. For each measurement, we recorded the largest dilution that sterilized the bacteria. Statistics are done on dilution numbers, rather than calculated concentrations, because only the former have normal distributions.

[2] = system: Pseudomonas aeruginosa clinical isolates; assay: microbe, parasite or virus in culture; conditions: clinical isolates
Procedure: as §1, §2, §3

[3] = system: K. pneumoniae clinical isolates
Procedure: as §1, §2, §3

[4] = system: P. aeruginosa PAO1 (EYFP) pellicle biofilms; assay: Pellicle biofilm assay, viable cell enumeration; assay type: cell-based, Pseudomonas aeruginosa
Procedure: Here, we directly compare the antibiofilm activity of D-CONGA and D-CONGA-Q7 using a mature pellicle biofilm of P. aeruginosa.[22] […] To determine the susceptibility of pellicle biofilms to D-CONGA and D-CONGA-Q7, we cultured 2-day-old biofilms as described in the Methods section. The coverslip-adhered biofilms were exposed to challenge solution for 24 h prior to staining with SYTOX red and imaging with CLSM for EYFP, which indicates live cells, and for SYTOX Red which stains dead cells and extracellular DNA. […] The % cell survival was quantitated in two ways: (i) COMSTAT was used to compare biofilm biomass in CLSM images by estimating the biofilm biovolume, which is calculated as the overall volume/substratum area (μm^3/μm^2).[24],[25] […] (ii) The biofilms were dispersed mechanically for subsequent enumeration of viable cells such that % survival is expressed as the ratio (CFUuntreated biofilm/CFUtreated biofilm).
The susceptibility of biofilm-embedded P. aeruginosa cells to the antimicrobial peptides was studied as reported previously[23] using a P. aeruginosa PAO1 strain expressing enhanced yellow fluorescent protein (EYFP).[22] The EYFP-expressing P. aeruginosa strain was routinely grown in Pseudomonas Isolation (PI) media (20 g/L peptone, 0.3 g/L, MgCl2·6H2O, 10 g/L, K2SO4, 25 mg/L irgasan, and 20 mL/L glycerol, pH 7.0). […] Iron supplementation was carried out by addition of a small volume of filter-sterilized 10 mM (NH4)2Fe(SO4)2 (pH ∼ 2.0) solution.
In brief: Starter cultures (5 mL PI media supplemented with 10 μM Fe) were grown (14 h) from a single-colony shaking (220 rpm) at 37 °C. To grow the pellicle biofilms, starter cultures were diluted to OD600 = 0.001 in 4 mL of PI media supplemented with 20 μM Fe, placed in 35 × 10 mm Petri dishes, and incubated statically at 30 °C for 48 h. The pellicles were harvested using circular (1.5 cm diameter) glass coverslips by gently allowing the surface of a coverslip to contact the biofilm at the air–liquid interface. […]

luminescent MRSA = assay: Murine wound infection model, MRSA; assay type: in vivo, CD1 mice; conditions: 75 μg in 20 μL water with 0.025% acetic acid, topical, every 8 h for the first 5 days; luminescence (IVIS), Days 1–3; four animals per group
Procedure: (§4) Wound luminescence values were recorded once per day for each animal during the experiment using an IVIS whole animal imaging system. Total luminescence values, integrated over the entire wound area, were averaged for the four animals in each group. Treated versus control values were compared for each day using a two-sample t-test. Multiple comparisons were corrected using the method of Bonferroni.

[5] = system: luminescent P. aeruginosa (PAO1); assay: Murine wound infection model, P. aeruginosa; assay type: in vivo, CD1 mice; conditions: 75 μg in 20 μL water with 0.025% acetic acid, topical, every 8 h for the first 5 days; luminescence (IVIS), Days 1–3; four animals per group
Procedure: as §4

wound infections = assay: Murine wound model, once or twice per day dosing and viscous polymer formulations; assay type: in vivo, mice; conditions: 75 μg of peptide in 20 μL of buffer (PBS)
Source text: Preliminary data had shown that once per day treatments in a simple aqueous vehicle were ineffective against wound infections in this model, see Figure S2. Three times per day is required for efficacy in simple media, Figure 8. Therefore, we also tested the effectiveness of D-CONGA-Q7 formulated in aqueous suspensions of carboxymethyl cellulose and Xanthan gum, which are anionic carbohydrate polymers that create highly viscous solutions at ∼1% w/v concentration. […] Clinically useful formulations of these peptides may be straightforward to develop.
Figure S2. Activity of D-CONGA-Q7 in wound model using 1x and 2x per day administration. Experiments were performed as described in main text, except that treatments with 75 μg of peptide in 20 μL of buffer were administered only once or twice per day. Bacterial […]
in PBS. Also, Tegaderm biofilm formation is not inhibited by peptide under these conditions.
Results for three times per day administration are shown in Figs. 8&9 of the main manuscript.
(1 picture or pasted object on this page, not shown here)
Radial diffusion results Murine wound infection
A C 6 hour incubation E 10 Once per day treatment with:
1.0 Buffer and viscous polymers D-CONGA-Q7 in 0.75% CMC
Peptide concentration (µM)
B D 24 hour incubation Once per day treatment with:
Buffer and viscous polymers 0.75% XG Vehicle only
1.0% XG D-CONGA-Q7 in 0.75% XG […]

[6] = system: Acinetobacter baumannii (PDR) Tulane isolate; conditions: PDR) Tulane isolate

Compound: CC(C)C[C@@H](NC(=O)[C@@H](CCC(N)=O)NC(=O)[C@@H](CCCNC(=N)N)NC(=O)[C@@H](CCCNC(=N)N)NC(=O)[C@@H](C)NC(=O)[C@@H](Cc1c[nH]c2ccccc12)NC(=O)[C@@H](CCCNC(=N)N)NC(=O)[C@H](N)CCCNC(=N)N)C(=O)N[C@H](C)C(=O)N[C@H](Cc1ccccc1)C(=O)N[C@H](C)C(=O)N[C@H](Cc1ccccc1)C(=O)N[C@H](CCCNC(=N)N)C(=O)N[C@H](CCCNC(=N)N)C(N)=O [D-CONGA-Q7] (H-[dR][dR][dW][dA][dR][dR][dQ][dL][dA][dF][dA][dF][dR][dR]-NH2; N-terminus assumed)
- MIC, MRSA USA400 [1]: 1.5 µM (≈ 2.83 µg/mL)
- MIC, PA(mucoid) [2]: 4.2 µM (≈ 7.93 µg/mL)
- MIC, PA(non-mucoid) [2]: 1.1 µM (≈ 2.08 µg/mL)
- K. Pneumoniae Isolate MIC, 1000527 [3]: 6.8 µM
- K. Pneumoniae Isolate MIC, 1002565 [3]: 5.1 µM
- K. Pneumoniae Isolate MIC, 1100770 [3]: 5.1 µM
- K. Pneumoniae Isolate MIC, 1100975 [3]: 3.4 µM
- K. Pneumoniae Isolate MIC, ATCC 43816 [3]: 6.8 µM
- K. Pneumoniae Isolate MIC, ATCC 700721 [3]: 6.8 µM
- K. Pneumoniae Isolate MIC, K6 [3]: 3.4 µM
- K. Pneumoniae Isolate MIC, K 6.1 [3]: 3.4 µM
- K. Pneumoniae Isolate MIC, K 6.2 [3]: 5.1 µM
- K. Pneumoniae Isolate MIC, KP 80 [3]: 3.4 µM
- K. Pneumoniae Isolate MIC, KP NIH 1 [3]: 6.8 µM
- K. Pneumoniae Isolate MIC, KP NIH 10 [3]: > 25 µM
- K. Pneumoniae Isolate MIC, KP NIH 24 [3]: 6.8 µM
- K. Pneumoniae Isolate MIC, KP NIH 27 [3]: 3.4 µM
- K. Pneumoniae Isolate MIC, KP NIH 29 [3]: 2.5 µM
- K. Pneumoniae Isolate MIC, KP NIH 30 [3]: 3.4 µM
- K. Pneumoniae Isolate MIC, KP NIH 31 [3]: 3.4 µM
- K. Pneumoniae Isolate MIC, KP NIH 32 [3]: 6.8 µM
- K. Pneumoniae Isolate MIC, KP NIH 33 [3]: 1.3 µM
- Reduction of biofilm CFU ([4]; 2 μM, 48 h pellicle biofilm, 24 h challenge, dispersing and counting viable cells): 70%
- Reduction of viable biofilm bacteria ([4]; 8 μM peptide, 2-day-old pellicle biofilm, 24 h treatment in AB challenge media, 30 °C): ≥ 90%
- Maximum reduction of MRSA burden (luminescent MRSA): ≥ 4 logs
- Reduction of P. aeruginosa burden [5]: ~2 logs
- Tegaderm biofilm formation, once or twice per day administration (wound infections): not inhibited
- Wound bacterial burden, once or twice per day administration (wound infections): not reduced significantly
- MIC, AB (PDR)Tulane [6]: 1.1 µM (≈ 2.08 µg/mL)
